We go through one molecule from ChEMBL document CHEMBL4321836, “Discovery of BAY-298 and BAY-899: Tetrahydro-1,6-naphthyridine-Based, Potent, and Selective Antagonists of the Luteinizing Hormone Receptor Which Reduce Sex Hormone Levels in Vivo” (J Med Chem, 2019).

The target in the test is Lutropin-choriogonadotropic hormone receptor (Homo sapiens, UniProt P22888). Nature of the test: Negative allosteric modulation of human luteinizing hormone receptor assessed as reduction in glycoprotein human luteinizing hormone-induced agonist activity preincubated for 20 mins followed by 100 times EC80 of agonist addition and measured after 60 mins by cell based TR-FRET assay relative to control. (Time-resolved FRET reads energy transfer from a long-lived donor to a nearby acceptor.)
Lutropin-choriogonadotropic hormone receptor, sequence (P22888 whole entry): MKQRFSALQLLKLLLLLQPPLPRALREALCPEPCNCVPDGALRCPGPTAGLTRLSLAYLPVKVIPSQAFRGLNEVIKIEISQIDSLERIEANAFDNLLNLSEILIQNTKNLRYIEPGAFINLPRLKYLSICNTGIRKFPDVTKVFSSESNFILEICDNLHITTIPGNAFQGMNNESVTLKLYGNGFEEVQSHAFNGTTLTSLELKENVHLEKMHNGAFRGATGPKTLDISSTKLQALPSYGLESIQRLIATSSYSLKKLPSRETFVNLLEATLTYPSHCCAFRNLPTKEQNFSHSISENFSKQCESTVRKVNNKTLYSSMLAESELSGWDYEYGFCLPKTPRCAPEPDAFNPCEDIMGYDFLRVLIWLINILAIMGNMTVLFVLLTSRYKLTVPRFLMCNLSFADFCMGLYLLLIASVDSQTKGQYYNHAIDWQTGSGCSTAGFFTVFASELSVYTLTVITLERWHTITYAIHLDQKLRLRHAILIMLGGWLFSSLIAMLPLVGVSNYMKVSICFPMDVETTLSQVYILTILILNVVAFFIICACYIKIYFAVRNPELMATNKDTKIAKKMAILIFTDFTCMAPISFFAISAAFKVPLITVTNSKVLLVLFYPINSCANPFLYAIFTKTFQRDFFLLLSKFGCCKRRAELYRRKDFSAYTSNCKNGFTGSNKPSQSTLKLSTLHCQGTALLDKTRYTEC

Each structure is given as a SMILES string.

As usually defined, the IC50 is the concentration that inhibits the measured activity by half. Take `O=C(Nc1ccc(Oc2ccc(F)cc2)cc1)N1CCc2ncccc2[C@@H]1c1ccc(Cl)cc1`: the IC50 stood at 2500 nM.
